From patent publication US20240060999A1, “BLOOD COAGULATION INSPECTION METHOD” (FUJIMORI KOGYO CO., LTD, priority 2020, published 2024)

Tests used:
whole blood [1] = test: ROTEM whole blood coagulation with rabbit brain-derived tissue thromboplastin (TP) + Ca 12 mM (CTI 20 μg/mL, PKSI-527 40 μM where stated); assay type: cell-based; conditions: for prolongation of blood coagulation by addition of rTM: Ex5-8, TP 0.9 μg/mL+Startem, FRAGMIN 0.2 U/mL or ARIXTRA 0.5 μg/mL instead of heparan sulfate, rTM 20 or 30 nM
whole blood [2] = test: ROTEM whole blood coagulation with dialyzed Dade Innovin (recombinant tissue factor) 0.569 μg/mL + Ca 12 mM + CTI 20 μg/mL + PKSI-527 40 μM; assay type: cell-based; conditions: Ex28; for CT (clotting time): Innovin 0.569 μg/mL+Ca+CTI+PKSI-527, ARIXTRA 0.5 ug/mL
Procedure: ROTEM was used to analyze blood coagulation.
Blood was collected using a blood collection tube containing 3.2% sodium citrate manufactured by Terumo Corporation.
Blood coagulation was analyzed in the case of having added 4% (final concentration 0.569 μg/mL) of Dade Innovin (recombinant tissue factor: Sysmex Corporation) having being diluted by 50 times after dialysis, calcium chloride (Ca; final concentration 12 mM), heparan sulfate (final concentration 0 or 2 μg/mL), CTI (final concentration 20 μg/mL), PKSI-527 (final concentration 40 μM) without and with a soluble thrombomodulin (rTM: final concentration 30 nM) further having been added, as well as with an APC inhibitory aptamer (HS02-44G; final concentration 1 μM) in addition to 30 nM of soluble thrombomodulin.
Blood coagulation was analyzed in the case of having added 4% (final concentration 0.569 μg/mL) of 50-fold diluted Dade Innovin (recombinant tissue factor: Sysmex Corporation) after dialysis, calcium chloride (Ca; final concentration 12 mM), low molecular weight heparan (trade name FRAGMIN; Pfizer) (final concentration 0 or 0.2 U/mL), CTI (final concentration 20 μg/mL), and PKSI-527 (final concentration 40 μM) with and without a soluble thrombomodulin (rTM; final concentration 30 nM) further having been added, as well as with an APC inhibitory aptamer (HS02-44G; final concentration 1 μM) in addition to 30 nM soluble thrombomodulin.
ROTEM was used to analyze coagulation.
Blood coagulation was analyzed in the case of having added 4% (final concentration 0.569 μg/mL) of 50-fold diluted Dade Innovin (recombinant tissue factor: Sysmex Corporation) after dialysis, calcium chloride (Ca; final concentration 12 mM), ARIXTRA (final concentration 0 or […]), CTI (final concentration 20 μg/mL), and PKSI-527 (final concentration 40 μM), without and with thrombomodulin (rTM; final concentration 30 nM) further having been added, as well as with an APC inhibitory aptamer (HS02-44G; final concentration 1 μM) in addition to soluble thrombomodulin 30 nM.

[3] = unfractionated heparin 0.1 U/mL
[4] = Ex20, TP 16.6 μg/mL+Ca+CTI+PKSI-527, ARIXTRA 0.5 μg/mL, no rTM
[5] = Ex20, TP 16.6 μg/mL+Ca+CTI+PKSI-527, ARIXTRA 0.5 μg/mL, rTM 100 nM
[6] = Ex20, TP 16.6 μg/mL+Ca+CTI+PKSI-527, ARIXTRA 2.0 μg/mL, no rTM
[7] = Ex20, TP 16.6 μg/mL+Ca+CTI+PKSI-527, ARIXTRA 2.0 μg/mL, rTM 100 nM
[8] = Ex20, TP 16.6 μg/mL+Ca+CTI+PKSI-527, ARIXTRA 3.0 μg/mL, no rTM
[9] = Ex20, TP 16.6 μg/mL+Ca+CTI+PKSI-527, ARIXTRA 3.0 μg/mL, rTM 100 nM
[10] = Ex20, TP 16.6 μg/mL+Ca+CTI+PKSI-527, ARIXTRA 4.0 μg/mL, no rTM
[11] = Ex20, TP 16.6 μg/mL+Ca+CTI+PKSI-527, ARIXTRA 4.0 μg/mL, rTM 100 nM
[12] = Ex20, TP 16.6 μg/mL+Ca+CTI+PKSI-527, ARIXTRA 5.0 μg/mL, no rTM
[13] = Ex20, TP 16.6 μg/mL+Ca+CTI+PKSI-527, ARIXTRA 5.0 μg/mL, rTM 100 nM
[14] = Ex21, TP 0.64 μg/mL+Ca+CTI+PKSI-527, ARIXTRA 0.5 μg/mL, no rTM
[15] = Ex21, TP 0.64 μg/mL+Ca+CTI+PKSI-527, ARIXTRA 0.5 μg/mL, rTM 30 nM
[16] = Ex22, TP 0.055 μg/mL+Ca+CTI+PKSI-527, ARIXTRA 0.05 μg/mL, no rTM
[17] = Ex22, TP 0.055 μg/mL+Ca+CTI+PKSI-527, ARIXTRA 0.05 μg/mL, rTM 20 nM
[18] = Ex22, TP 0.055 μg/mL+Ca+CTI+PKSI-527, ARIXTRA 0.20 μg/mL, no rTM
[19] = Ex22, TP 0.055 μg/mL+Ca+CTI+PKSI-527, ARIXTRA 0.20 μg/mL, rTM 20 nM
[20] = Ex19, TP 16.6 μg/mL+Ca+CTI+PKSI-527, unfractionated heparin 0.1 U/mL, no rTM
[21] = Ex19, TP 16.6 μg/mL+Ca+CTI+PKSI-527, unfractionated heparin 0.1 U/mL, rTM 100 nM
[22] = Ex19, TP 16.6 μg/mL+Ca+CTI+PKSI-527, unfractionated heparin 0.2 U/mL, no rTM
[23] = Ex19, TP 16.6 μg/mL+Ca+CTI+PKSI-527, unfractionated heparin 0.2 U/mL, rTM 100 nM
[24] = Ex19, TP 16.6 μg/mL+Ca+CTI+PKSI-527, unfractionated heparin 0.3 U/mL, no rTM
[25] = Ex19, TP 16.6 μg/mL+Ca+CTI+PKSI-527, unfractionated heparin 0.3 U/mL, rTM 100 nM

## CO[C@H]1O[C@H](COS(=O)(=O)O)[C@@H](O[C@@H]2O[C@@H](C(=O)O)[C@@H](O[C@H]3O[C@H](COS(=O)(=O)O)[C@@H](O[C@@H]4O[C@H](C(=O)O)[C@@H](O[C@H]5O[C@H](COS(=O)(=O)O)[C@@H](O)[C@H](O)[C@H]5NS(=O)(=O)O)[C@H](O)[C@H]4O)[C@H](OS(=O)(=O)O)[C@H]3NS(=O)(=O)O)[C@H](O)[C@H]2OS(=O)(=O)O)[C@H](O)[C@H]1NS(=O)(=O)O [ARIXTRA, fondaparinux sodium]
Whole blood [1]; [3]
  prolongation of blood coagulation by addition of rTM: markedly prolonged
Whole blood [1]; Ex20, TP 16.6 μg/mL+Ca+CTI+PKSI-527, ARIXTRA 0, 0.5 μg/mL, no rTM
  CT values: < 1 min
Whole blood [1]; [4]
  CFT (clot formation time): 86 s
  CT (clotting time): 52 s
Whole blood [1]; [5]
  CFT (clot formation time): 69 s
  CT (clotting time): 68 s
Whole blood [1]; [6]
  CFT (clot formation time): 64.0 s
  CT (clotting time): 64 s
Whole blood [1]; [7]
  CFT (clot formation time): 61 s
  CT (clotting time): 96 s
Whole blood [1]; [8]
  CFT (clot formation time): 78.0 s
  CT (clotting time): 72 s
Whole blood [1]; [9]
  CFT (clot formation time): 68 s
  CT (clotting time): 112 s
Whole blood [1]; [10]
  CFT (clot formation time): 70.0 s
  CT (clotting time): 75 s
Whole blood [1]; [11]
  CFT (clot formation time): 77 s
  CT (clotting time): 118 s
Whole blood [1]; [12]
  CFT (clot formation time): 77.0 s
  CT (clotting time): 78 s
Whole blood [1]; [13]
  CFT (clot formation time): 105 s
  CT (clotting time): 114 s
Whole blood [1]; [14]
  CFT (clot formation time): 74 s
  CT (clotting time): 294 s
Whole blood [1]; [15]
  CFT (clot formation time): 794 s
  CT (clotting time): 581 s
Whole blood [1]; [16]
  CFT (clot formation time): 145 s
  CT (clotting time): 619 s
Whole blood [1]; [17]
  CFT (clot formation time): 403 s
  CT (clotting time): 1074 s
Whole blood [1]; [18]
  CFT (clot formation time): 232 s
  CT (clotting time): 799 s
Whole blood [1]; Ex22, TP 0.055 μg/mL+Ca+CTI+PKSI-527, ARIXTRA 0.2 μg/mL, rTM 20 nM
  blood clotting time: ≥ 1 h
Whole blood [1]; [19]
  CFT (clot formation time): No CFT
  CT (clotting time): No CT
Whole blood [2]; no rTM
  CT (clotting time): 466 s
Whole blood [2]; rTM 30 nM
  CT (clotting time): 996 s
Whole blood [2]; rTM 30 nM+APC inhibitory aptamer 1 μM
  CT (clotting time): 474 s
Whole blood [2]; addition of ARIXTRA 0.5 μg/mL, rTM 30 nM
  anticoagulation ability of the soluble thrombomodulin: markedly enhanced

## Unfractionated heparin
Whole blood [1]; [3]
  prolongation of blood coagulation by addition of rTM: markedly prolonged
Whole blood [1]; [20]
  CFT (clot formation time): 98 s
  CT (clotting time): 53 s
Whole blood [1]; [21]
  CFT (clot formation time): 93 s
  CT (clotting time): 66 s
Whole blood [1]; [22]
  CFT (clot formation time): 82.0 s
  CT (clotting time): 73 s
Whole blood [1]; [23]
  CFT (clot formation time): 102 s
  CT (clotting time): 89 s
Whole blood [1]; [24]
  CFT (clot formation time): 86.0 s
  CT (clotting time): 69 s
Whole blood [1]; [25]
  CFT (clot formation time): 161 s
  CT (clotting time): 182 s
